Test results published in patent US9944598B2, “Mono- or di-substituted indole derivatives as dengue viral replication inhibitors” (priority 2014, dated 2018).

Key:
Type in all cases: cell-based
in vitro = details: African green monkey
Method: (§1) The antiviral activity of the compounds of the invention was tested against DENV-1 strain TC974#666 (NCPV), DENV-2 strain 16681, DENV-3 strain H87 (NCPV) and DENV-4 strains H241 (NCPV) and EDEN (SG/06K2270DK1/2005; GenBank accession number QG398256) in a RT-qPCR assay. Therefore, Vero cells were infected with either DENV-1, or -2, or -3, or -4 in the presence or absence of test compounds. At day 3 post-infection, the cells were lysed and cell lysates were used to prepare cDNA of both a viral target (the 3′UTR of DENV; table 2) and a cellular reference gene (β-actin, table 2). Subsequently, a duplex real time PCR was performed on a Lightcycler480 instrument. The generated Cp value is inversely proportional to the amount of RNA expression of these targets. Inhibition of DENV replication by a test compound result in a shift of Cp's for the 3′UTR gene. On the other hand, if a test compound is toxic to the cells, a similar effect on β-actin expression will be observed. The comparative ΔΔCp method is used to calculate EC50, which is based on the relative gene expression of the target gene (3′UTR) normalized with the cellular housekeeping gene (β-actin). In addition, CC50 values were determined based on the Cp values acquired for the housekeeping gene β-actin.
(§2) The culture medium consisted of minimal essential medium supplemented with 2% of heat-inactivated fetal calf serum, 0.04% gentamycin (50 mg/mL) and 2 mM of L-glutamine. Vero cells, obtained from ECACC, were suspended in culture medium and 75 μL/well was added in 96-well plates (10000 cells/well), which already contain the antiviral compounds. Typically, these plates contain a 4-fold serial dilution of 9 dilution steps of the test compound at 200 times the final concentration in 100% DMSO (500 nL; final concentration range: 25 μM-0.00038 μM). In addition, each plate contains wells which are assigned as virus controls (containing cells and virus in the absence of compound) and cell controls (containing cells in the absence of virus and compound). Once the cells were added in the plates, the plates were incubated in a fully humidified incubator (37° C., 5% CO2) until the next day. Then, DENV-1 strain TC974#666, DENV-2 strain 16681, DENV-3 strain H87 or DENV-4 strains H241 or EDEN were added. […] In parallel, 25 μL of culture medium was added to the cell controls. Next, the plates were incubated for 3 days in a fully humidified incubator (37° C., 5% CO2). After 3 days, the supernatant was removed from the wells and the cells were washed twice with ice-cold PBS (˜100 μL). The cell pellets within the 96-well plates were stored at −80° C. for at least 1 day. Next, RNA was extracted using the Cells-to-CT™ lysis kit, according to the manufacture's guideline (Applied Biosystems). The cell lysates can be stored at −80° C. or immediately used in the reverse transcription step.
(§3) Using the LightCycler software and an in-house LIMS system, dose response curves for each compound were calculated and the half maximal effective concentration (EC50) and the half maximal cytotoxic concentration (CC50) were determined (Tables 6-9).

[1] = tested on: DENV-1 Djibouti strain D1/H/IMTSSA/98/606; assay: Tetravalent RT-qPCR assay Protocol B, serotype 1; details: Dengue virus, DENV1, 168 h, RT-qPCR serotype 1 Djibouti, Vero cells, 7 days
Method: Vero cells (4×10^4) were seeded in 96-well plates. After one day, cell culture medium was replaced with 100 μL assay medium containing a 2×, 3× or 5× serial dilution of the compound (concentration range: 50 μg/mL-0.00038 μg/mL, 50 μg/mL-0.0076 μg/mL, and 50 μg/mL-0.00013 μg/mL, respectively) and 100 μL of dengue virus dilution, where a Ct of ˜20 is achieved in RTqPCR. Following a 2 hour incubation period, the cell monolayer was washed 3 times with assay medium to remove residual, non-adsorbed virus and cultures were further incubated for either 4 days (DENV-2 NGC-Tongalike) or 7 days (DENV-1 Djibouti strain D1/H/IMTSSA/98/606, DENV-3 strain H87 prototype, DENV-4 strain H241) in the presence of the inhibitor. Supernatant was harvested and viral RNA load was determined by real-time quantitative RT-PCR. The 50% effective concentration (EC50), which is defined as the compound concentration that is required to inhibit viral RNA replication by 50%, was determined using logarithmic interpolation (Tables 7 and 8).
RNA was isolated from 100 μL supernatant with the NucleoSpin 96 Virus kit (Filter Service, Düren, Germany) as described by the manufacturer. The sequences of the TaqMan primers (DENV-For, DENV-Rev; Table 5) and TaqMan probes (DENV-Probe Table 5) were selected from non-structural gene 3 (NS3) or NSS, of the respective flaviviruses using Primer Express software (version 2.0; Applied Biosystems, Lennik, Belgium). The TaqMan probe was fluorescently labelled with 6-carboxyfluorescein (FAM) at the 5′ end as the reporter dye, and with minor groove binder (MGB) at the 3′ end as the quencher (Table 5). One-step, quantitative RT-PCR was performed in a total volume of 25 μL, containing 13.9375 μL H2O, 6.25 μL master mix (Eurogentec, Seraing, Belgium), 0.375 μL forward primer, 0.375 μL reverse primer, 1 μL probe, 0.0625 μL reverse transcriptase (Eurogentec) and 3 μL sample. RT-PCR was performed using the ABI 7500 Fast Real-Time PCR System (Applied Biosystems, Branchburg, N.J., USA) using the following conditions: 30 min at 48° C. and 10 min at 95° C., followed by 40 cycles of 15 s at 95° C. and 1 min at 60° C. The data was analyzed using the ABI PRISM 7500 SDS software (version 1.3.1; Applied Biosystems). For absolute quantification, standard curves were generated using 10-fold dilutions of template preparations of known concentrations.

DENV-3 strain H87 = assay: Tetravalent RT-qPCR assay Protocol A, serotype 3; details: Dengue virus, DENV3, 72 h, RT-qPCR serotype 3 H87, Vero cells, 3 days
Method: as §1, §2
(§4) In preparation of the reverse transcription step, mix A (table 3A) was prepared and 7.57 μL/well was dispensed in a 96-well plate. After addition of 5 μL of the cell lysates, a five minute denaturation step at 75° C. was performed (table 3B). Afterwards, 7.43 μL of mix B was added (table 3C) and the reverse transcription step was initiated (table 3D) to generate cDNA.
(§5) Finally, a RT-qPCR mix was prepared, mix C (table 4A), dispensed in 96-well LightCycler qPCR plates to which 3 μL of cDNA was added and the qPCR was performed according to the conditions in table 4B on a LightCycler 480.
as §3

DENV-4 strain H241 = assay: Tetravalent RT-qPCR assay Protocol A, serotype 4 H241; details: Dengue virus, DENV4, 72 h, RT-qPCR serotype 4 H241, Vero cells, 3 days
Method: as §1, §2, §4, §5, §3

DENV-1 strain TC974#666 = assay: Tetravalent RT-qPCR assay Protocol A, serotype 1; details: Dengue virus, DENV1, 72 h, RT-qPCR serotype 1 TC974#666, Vero cells, 3 days
Method: as §1, §2, §4, §5, §3

## COc1cc(NC(C(=O)c2c[nH]c3cc(OC)ccc23)c2ccc(Cl)cc2OC)cc(OCCO)c1 (single isomer, unassigned) [Compound 5A, 2-(4-chloro-2-methoxyphenyl)-2-((3-(2-hydroxyethoxy)-5-methoxyphenyl)amino)-1-(6-methoxy-1H-indol-3-yl)ethanone]
In vitro
  CC50 at 3 days: 5.2 µM
[1]
  EC50: 0.019 µM
DENV-3 strain H87
  EC50: 0.068 µM
DENV-4 strain H241
  EC50: 0.32 µM
DENV-1 strain TC974#666
  EC50: 0.013 µM

## COc1cc(NC(C(=O)c2c[nH]c3c(C)c(Cl)ccc23)c2ccc(Cl)cc2OC)cc(OCCO)c1 (single isomer, unassigned) [Compound 3A, 2-(4-chloro-2-methoxyphenyl)-1-(6-chloro-7-methyl-1H-indol-3-yl)-2-((3-(2-hydroxyethoxy)-5-methoxyphenyl)amino)ethanone]
In vitro
  CC50 at 3 days: 3.8 µM
[1]
  EC50: 0.018 µM
DENV-3 strain H87
  EC50: 0.036 µM
DENV-4 strain H241
  EC50: 0.18 µM
DENV-1 strain TC974#666
  EC50: 0.0053 µM

## COc1cc(NC(C(=O)c2c[nH]c3cc(F)c(F)cc23)c2ccc(Cl)cc2OC)cc(OCCO)c1 (single isomer, unassigned) [Compound 9A, 2-(4-chloro-2-methoxyphenyl)-1-(5,6-difluoro-1H-indol-3-yl)-2-((3-(2-hydroxyethoxy)-5-methoxyphenyl)amino)ethanone]
In vitro
  CC50 at 3 days: 4.7 µM
[1]
  EC50: 0.019 µM
DENV-3 strain H87
  EC50: 0.063 µM
DENV-4 strain H241
  EC50: 0.24 µM
DENV-1 strain TC974#666
  EC50: 0.005 µM

## COc1cc(NC(C(=O)c2c[nH]c3cc(F)ccc23)c2ccc(Cl)cc2OC)cc(OCCO)c1 (single isomer, unassigned) [Compound 1A, 2-(4-chloro-2-methoxyphenyl)-1-(6-fluoro-1H-indol-3-yl)-2-((3-(2-hydroxyethoxy)-5-methoxyphenyl)amino)ethanone]
[1]
  EC50: 0.022 µM
DENV-3 strain H87
  EC50: 0.063 µM
DENV-4 strain H241
  EC50: 0.24 µM
DENV-1 strain TC974#666
  EC50: 0.0077 µM

## COc1cc(NC(C(=O)c2c[nH]c3c(C)cc(F)cc23)c2ccc(Cl)cc2OC)cc(OCCO)c1 (single isomer, unassigned) [Compound 8A, 2-(4-chloro-2-methoxyphenyl)-1-(5-fluoro-7-methyl-1H-indol-3-yl)-2-((3-(2-hydroxyethoxy)-5-methoxyphenyl)amino)ethanone]
In vitro
  CC50 at 3 days: 3.5 µM
[1]
  EC50: 0.017 µM
DENV-3 strain H87
  EC50: 0.076 µM
DENV-4 strain H241
  EC50: 0.3 µM
DENV-1 strain TC974#666
  EC50: 0.0096 µM

## COc1cc(NC(C(=O)c2c[nH]c3c(C)c(F)ccc23)c2ccc(Cl)cc2OC)cc(OCCO)c1 (single isomer, unassigned) [Compound 2A, 2-(4-chloro-2-methoxyphenyl)-1-(6-fluoro-7-methyl-1H-indol-3-yl)-2-((3-(2-hydroxyethoxy)-5-methoxyphenyl)amino)ethanone]
[1]
  EC50: 0.017 µM
DENV-3 strain H87
  EC50: 0.053 µM
DENV-4 strain H241
  EC50: 0.26 µM
DENV-1 strain TC974#666
  EC50: 0.0071 µM

## COc1cc(NC(C(=O)c2c[nH]c3cc(OC)c(F)cc23)c2ccc(Cl)cc2OC)cc(OCCO)c1 (single isomer, unassigned) [Compound 7A, 2-(4-chloro-2-methoxyphenyl)-1-(5-fluoro-6-methoxy-1H-indol-3-yl)-2-((3-(2-hydroxyethoxy)-5-methoxyphenyl)amino)ethanone]
In vitro
  CC50 at 3 days: 4.6 µM
[1]
  EC50: 0.02 µM
DENV-3 strain H87
  EC50: 0.07 µM
DENV-4 strain H241
  EC50: 0.23 µM
DENV-1 strain TC974#666
  EC50: 0.016 µM

## COc1cc(NC(C(=O)c2c[nH]c3cc(OC)c(C)cc23)c2ccc(Cl)cc2OC)cc(OCCO)c1 (single isomer, unassigned) [Compound 6A, 2-(4-chloro-2-methoxyphenyl)-2-((3-(2-hydroxyethoxy)-5-methoxyphenyl)amino)-1-(6-methoxy-5-methyl-1H-indol-3-yl)ethanone]
[1]
  EC50: < 0.015 µM
DENV-3 strain H87
  EC50: 0.026 µM
DENV-4 strain H241
  EC50: 0.084 µM
DENV-1 strain TC974#666
  EC50: 0.0036 µM

## COc1cc(NC(C(=O)c2c[nH]c3cc(Cl)ccc23)c2ccc(Cl)cc2OC)cc(OCCO)c1 (single isomer, unassigned) [Compound 4A, 1-(6-chloro-1H-indol-3-yl)-2-(4-chloro-2-methoxyphenyl)-2-((3-(2-hydroxyethoxy)-5-methoxyphenyl)amino)ethanone]
[1]
  EC50: 0.02 µM
DENV-3 strain H87
  EC50: 0.065 µM
DENV-4 strain H241
  EC50: 0.24 µM
DENV-1 strain TC974#666
  EC50: 0.0078 µM

## COc1cc(NC(C(=O)c2c[nH]c3c(F)cc(C)cc23)c2ccc(Cl)cc2OC)cc(OCCO)c1 (single isomer, unassigned) [Compound 10A, 2-(4-chloro-2-methoxyphenyl)-1-(7-fluoro-5-methyl-1H-indol-3-yl)-2-((3-(2-hydroxyethoxy)-5-methoxyphenyl)amino)ethanone]
In vitro
  CC50 at 3 days: 4.1 µM
[1]
  EC50: 0.02 µM
DENV-3 strain H87
  EC50: 0.07 µM
DENV-4 strain H241
  EC50: 0.32 µM
DENV-1 strain TC974#666
  EC50: 0.014 µM

## COc1cc(NC(C(=O)c2c[nH]c3c(F)c(F)ccc23)c2ccc(Cl)cc2OC)cc(OCCO)c1 (single isomer, unassigned) [Compound 11B, 2-(4-chloro-2-methoxyphenyl)-1-(6,7-difluoro-1H-indol-3-yl)-2-((3-(2-hydroxyethoxy)-5-methoxyphenyl)amino)ethanone]
In vitro
  CC50 at 3 days: 3.7 µM
[1]
  EC50: 0.025 µM
DENV-3 strain H87
  EC50: 0.07 µM
DENV-4 strain H241
  EC50: 0.35 µM
DENV-1 strain TC974#666
  EC50: 0.018 µM
